Article PMC10223284, “Category-Based Toxicokinetic Evaluations of Data-Poor Per- and Polyfluoroalkyl Substances (PFAS) using Gas Chromatography Coupled with Mass Spectrometry” (Toxics, 2023)
Where “and” joins values, the source holds several entries; their conditions need not be identical. Equal entries are not always repeated. Where two headings read alike, the source gives them in different places.

Key:
[1] = in vitro; conditions: both, human, plasma
[2] = system: pooled human cryopreserved primary hepatocyte suspensions; assay: Hepatic metabolic stability (hepatocyte clearance) assay, substrate depletion; assay type: in vitro ADME; conditions: for Linear Regression Results, Best-Fit Values, Slope: hepatocyte time course
Description: (§1) William’s Medium E (Gibco A1217601), dexamethasone, and cell maintenance cocktail B (Gibco CM4000) were obtained from Thermo Fisher Scientific (Waltham, MA, USA). Hepatosure OptiThaw media (P/N K8000; Lot No. 18–1–0322) was obtained from Sekisui Xenotech (Kansas City, KS, USA). Trypan blue solution (P/N 1450021) was obtained from Bio-Rad (Hercules, CA, USA). Pooled human cryopreserved primary hepatocyte suspensions were obtained from BioIVT (Westbury, NY, USA) and produced using nontransplantable tissue. The human 50-donor pool (mixed gender; Cat X0080005; Lot MYC), selected from BioIVT’s commercially available, prepooled lots, was selected following review of vendor-generated metabolic characterization information. Pooled, mixed-sex human plasma from de-identified donors was obtained from a commercial vendor that operates a U.S. Food and Drug Administration-licensed and inspected donor center (BioIVT bioivt.com (accessed 12 May 2023). Donors comprised five males and five females and ranged from 20 to 50 years of age. Plasma collected using anticoagulant K2EDTA was sterile-filtered ([…]) and stored at <−70 °C until use.
(§2) The hepatic metabolic stability assay measures the loss of a parent compound over time in a substrate-depletion approach. Briefly, hepatocyte suspensions, after a viability assessment, were diluted in complete William’s medium E (containing dexamethasone and cell maintenance cocktail B) prior to addition to 96-well polypropylene plates containing an equal volume of media spiked with the test compound (1 μM assay concentration; assay cell density = 50,000 cells/100 μL) and maintained at 37 °C with shaking. At each time point, relevant plates were crashed with an equal volume of ice-cold acetonitrile, centrifuged, and supernatant transferred to a new plate prior to storage at <−70 °C until quantitative analysis. Controls, run in parallel, included cell-free (i.e., media only) and metabolically inactivated hepatocytes to evaluate abiotic chemical stability in the aqueous media matrix with and without cellular protein. In preliminary runs, these controls were run at T0 and T240 only. If significant instability was noted, the hepatocyte clearance assay was rerun, including cell-free samples at each time point and metabolically inactivated hepatocytes at selected time points.
(§3) To process samples for quantitative analysis, samples were thawed and mixed. An aliquot of sample was removed and diluted in acetonitrile (1 part sample plus 9 parts acetonitrile) containing the relevant ISs selected for the PFAS being analyzed (See Table S2). The target at instrument concentration of each IS was 10 pg/μL.
(§4) The curves were generated using concentration/response ratios from the target analyte and IS, with either linear or quadratic regression models. The model and weighting, if necessary, were chosen to most accurately reflect the response of each compound and was evaluated by recalculating the individual calibration points using the curve. An acceptable model reflected an accuracy of ±30% of the theoretical value.
(§5) Hepatic metabolic clearance data were plotted in semi-log format (ln concentration vs. time) with three replicates at each time point, as previously described. […] The equations described below are used to calculate the chemical half-life (T½) and intrinsic in vitro clearance (Clin vitro) with units of μL/(min × million hepatocytes). In Equation (3), 2000 is a scalar used to adjust the assay cell number up to be consistent with units of 1 million cells in the Clint equation.
(§6) Negative controls, including media only and metabolically inactivated hepatocyte controls, were included to monitor abiotic loss (i.e., background clearance) during the assay. Where significant compound loss occurred using the analysis described above, background clearance rates were calculated and used to background-adjust hepatic metabolic clearance rates. […]

[3] = as above; assay type: in vitro ADME, human; conditions: both sexes, human; for half-life at 1 μM: read-out: Linear Regression Results, Best-Fit Values, Half Life
Description: as §1, §2, §3, §4, §5, §6

[4] = Abiotic loss in negative controls of the hepatocyte clearance assay (cell-free media, metabolically inactivated hepatocytes); assay type: in vitro ADME; conditions: for half-life at 1 μM / HT BkgdCl, Slope / No Cells BkgdCl, Slope: 0 vs 240 min; for Hep_Stab_Fail: flag for stability failure in hepatocyte clearance assay controls (1 or Fst = fail, 0 = pass); for Negative Controls, Heat Treated (HT), concentration at 0 min / Negative Controls, Heat Treated (HT), concentration at 240 min: heat treated hepatocytes; for Negative Controls, Heat Treated (HT), concentration at 0 min / Negative Controls, Heat Treated (HT), concentration at 240 min / Negative Controls, No cells (NC), concentration at 0 min / Negative Controls, No cells (NC), concentration at 240 min: Rep 1-3
Outline: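 Test compound at 1 μM incubated at 37 °C with shaking in complete William's medium E, either cell-free or with metabolically inactivated hepatocytes, then quenched with ice-cold acetonitrile for quantitative analysis.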

[5] = system: human plasma; assay: Chemical stability in plasma over the UC assay time course (T5hr/T1hr); conditions: for Stability (T5hr/ T1hr), Run-specific Avg: average of one UC run (run date in line above); for PPB_Stab_Fail: flag for stability failure in the plasma protein binding assay (1 = fail, 0 = pass); for Mean Stability: mean T5hr/T1hr ratio over all replicates and runs, plasma; for Fstable.Med: median fraction stable in plasma, UC assay Level4
[6] = system: human primary cells; conditions: cited from earlier work
[7] = In vitro-in vivo extrapolation (IVIVE) to Css and administered equivalent dose (AED); design: species or system human; conditions: for Clhep: IVIVE, hepatocyte Clint scaled to whole-liver clearance; for AED: administered equivalent dose from LOEC and Css; for Fub: fub=fup/(B:P), Fub set to 1 if needed; for CLint: scaled with HPGL 110 mill cells/g, Vl 1596 g
Method: Using the experimentally generated PPB (fraction unbound in plasma, fup) and hepatic Clint data, IVIVE was performed as previously described to calculate human steady-state plasma concentrations (Css). Briefly, experimental measures of fup are adjusted using blood:plasma partitioning information to estimate the fraction unbound in blood (fub). Experimental hepatocyte Clint data are scaled up to represent whole-liver clearance (L/h). […] Once estimated, these Css values are considered in conjunction with published in vitro bioactivity concentrations (i.e., lowest-observed effective concentrations, or LOECs) to calculate AEDs (Table 2). See Table S10 for all relevant IVIVE inputs, scalars, calculations, and outputs.

[8] = system: human plasma; assay: Ultracentrifugation (UC) plasma protein binding assay, fraction unbound in plasma (fup); conditions: for fup: human plasma, 10 μM, ultracentrifugation, 37 °C; for Fup.Med: median fraction unbound in plasma; for Fup.Med / Fup.point: UC assay Level4; for Fup.point: point estimate of fraction unbound in plasma
[9] = Fraction Unbound (fu), Run-specific Avg, average of one UC run (run date in line above)
[10] = Mean fu, fraction unbound in human plasma, ultracentrifugation, some values based on eLOQ
[11] = hepatocyte incubation, Rep 1-3, start conc 1000 nM
[12] = hepatocytes, background-subtracted, read-out: Bkgd-Sub Clearance (µL/min/106 hepatocytes)
[13] = hepatocytes, hepatocyte clearance, Conc 1000 nM, not background adjusted, read-out: Unadj Clint
[14] = hepatocytes, pooled human hepatocyte suspensions, 1 μM, read-out: In Vitro Clint
[15] = hepatocytes, unadjusted hepatocyte intrinsic clearance, read-out: Unadj in vitro Clint
[16] = hepatocytes, hepatocyte time course, NS = slope not significant, read-out: Linear Regression Results, Best-Fit Values, Clearance
[17] = hepatocytes, hepatocyte time course, NS = slope not significant
[18] = buffer, no cells control, read-out: No Cells BkgdCl, Half Life
[19] = heat treated hepatocytes control
[20] = BioSeek lowest-observed effect concentration used for AED
[21] = minimum lowest-observed effect concentration, BioSeek platform
[22] = Assuming 1 mg/kg/day dose rate, BW 70 kg
[23] = human steady-state plasma concentration, assuming 1 mg/kg/day dosage

Compound: Cc1ccc(S(=O)(=O)OCC(F)(F)C(F)(F)C(F)(F)C(F)(F)C(F)(F)C(F)F)cc1 [1H,1H,7H-Perfluoroheptyl 4-methylbenzenesulfonate]
- fraction unbound [1, 9]: 0.03
- fraction unbound [1, 10]: 0.029
- Concentration (nM), Time 15 min [2, 11]: 1073.03 nM and 1187.92 nM and 943.206 nM
- Concentration (nM), Time 30 min [2, 11]: 985.478 nM and 1012.58 nM and 870.92 nM
- Concentration (nM), Time 60 min [2, 11]: 899.811 nM and 874.355 nM and 982.505 nM
- Linear Regression Results, Best-Fit Values, Slope [2]: -0.01549
- hepatocyte CLint at 1 μM [3, 12]: 23.9 µL/min/1e6 cells
- hepatocyte CLint at 1 μM [3, 13]: 31 µL/min/1e6 cells
- hepatocyte CLint at 1 μM [3, 14]: 23.9 µL/min/1e6 cells
- hepatocyte CLint at 1 μM [3, 15]: 31 µL/min/1e6 cells
- hepatocyte CLint at 1 μM [3, 16]: 31 µL/min/1e6 cells
- half-life at 1 μM [3, 17]: 0.746 h
- half-life at 1 μM ([4]; both sexes, human, heat treated hepatocytes control, read-out: HT BkgdCl, Half Life): 2.62 h
- half-life at 1 μM [4, 18]: 3.24 h
- Hep_Stab_Fail [4]: 0
- HT BkgdCl, Slope [4, 19]: -0.004413
- Negative Controls, Heat Treated (HT), concentration at 0 min [4]: 1655.88 nM and 1540.88 nM and 2130.45 nM
- Negative Controls, Heat Treated (HT), concentration at 240 min [4]: 752.335 nM and 712.914 nM and 422.601 nM
- No Cells BkgdCl, Slope ([4]; no cells control): -0.003563
- Negative Controls, No cells (NC), concentration at 0 min [4]: 1381.59 nM and 1965.43 nM and 2200.38 nM
- Negative Controls, No cells (NC), concentration at 240 min [4]: 723.371 nM and 790.633 nM and 803.182 nM
- Stability (T5hr/ T1hr), Run-specific Avg [5]: 0.983
- PPB_Stab_Fail [5]: 0
- Mean Stability [5]: 1.006
- Fstable.Med [5]: 1
- Stability (T5hr/ T1hr), replicates A, B, C ([5]; single replicate of one UC run): 0.9436 and 0.9774 and 1.0981
- LOEC [6, 20]: 7.00 µM
- LOEC [6, 21]: 7 µM
- Css [7, 22]: 4.87 mg/L and 10.01 uM
- Clhep [7]: 0.588 L/h
- AED [7]: 0.6995 mg/kg/day
- Fub [7]: 0.002357
- Css [7, 23]: 10.01 µM
- CLint [7]: 4187106 µL/min
- fup [8]: 0.0290
- Fup.Med [8]: 0.116
- Fup.point [8]: 0.0275
- Fraction Unbound (fu), replicates A, B, C ([8]; single replicate of one UC run (aqueous fraction / Time 5 hr)): 0.01902 and 0.02822 and 0.04008

Compound: OCC(F)(F)C(F)(F)C(F)(F)C(F)(F)C(F)(F)C(F)(F)CO [1H,1H,8H,8H-Perfluorooctane-1,8-diol]
- fraction unbound [1, 9]: 0.0529
- fraction unbound ([1]; Fraction Unbound (fu), individual replicates A, B, C of the UC run named in c8): 0.0626
- fraction unbound [1, 10]: 0.056
- Concentration (nM), Time 0 min [2, 11]: 833.88 nM and 886.538 nM and 918.72 nM
- Concentration (nM), Time 15 min [2, 11]: 552.068 nM and 564.688 nM and 626.636 nM
- Concentration (nM), Time 30 min [2, 11]: 572.698 nM and 772.55 nM and 675.577 nM
- Concentration (nM), Time 60 min [2, 11]: 915.509 nM and 882.56 nM and 951.955 nM
- Concentration (nM), Time 120 min [2, 11]: 252.926 nM and 197.823 nM and 212.459 nM
- Linear Regression Results, Best-Fit Values, Slope [2]: -0.01141
- hepatocyte CLint at 1 μM [3, 12]: 20 µL/min/1e6 cells
- hepatocyte CLint at 1 μM [3, 13]: 22.8 µL/min/1e6 cells
- hepatocyte CLint at 1 μM [3, 14]: 20 µL/min/1e6 cells
- hepatocyte CLint at 1 μM [3, 15]: 22.8 µL/min/1e6 cells
- hepatocyte CLint at 1 μM [3, 16]: 22.8 µL/min/1e6 cells
- half-life at 1 μM [3, 17]: 1.01 h
- hepatocyte CLint at 1 μM ([3]; s9, Bayesian analysis median, 1 μM assay concentration (Table S9), read-out: Clint.1.Med): 5.03 µL/min/1e6 cells
- half-life at 1 μM [4, 18]: 8.21 h
- Hep_Stab_Fail [4]: 0
- HT BkgdCl, Slope [4, 19]: -0.00103
- Negative Controls, Heat Treated (HT), concentration at 0 min [4]: 1090.28 nM and 973.38 nM and 645.077 nM
- Negative Controls, Heat Treated (HT), concentration at 240 min [4]: 595.287 nM and 737.448 nM and 742.842 nM
- No Cells BkgdCl, Slope ([4]; no cells control): -0.001407
- Negative Controls, No cells (NC), concentration at 0 min [4]: 937.465 nM and 878.747 nM and 1163.86 nM
- Negative Controls, No cells (NC), concentration at 240 min [4]: 676.807 nM and 658.518 nM and 781.013 nM
- Time 1 hr ([5]; amount measured in plasma sample at 1 hr, replicates A, B, C, unit not given): 8242.79 and 6998.48 and 7495.85 and 8652.78 and 7694.03 and 8210.48
- Time 5 hr ([5]; amount measured in plasma sample at 5 hr, replicates A, B, C, unit not given): 7470.56 and 8168.83 and 8821.07 and 7477.64 (2×) and 9359.65
- Stability (T5hr/ T1hr), Run-specific Avg [5]: 0.913
- PPB_Stab_Fail [5]: 0
- Mean Stability [5]: 0.997
- Fstable.Med [5]: 0.989
- LOEC [6, 20]: 7.00 µM
- LOEC [6, 21]: 7 µM
- Css [7, 22]: 0.16 mg/L and 0.45 uM
- Clhep [7]: 17.326 L/h
- AED [7]: 15.5263 mg/kg/day
- Fub [7]: 0.1018
- Css [7, 23]: 0.45 µM
- CLint [7]: 3512253 µL/min
- Aqueous Fraction ([8]; amount measured in aqueous fraction after ultracentrifugation, replicates A, B, C, unit not given): 467.47 and 486.886 and 467.528 and 459.225 and 404.056 and 403.816
- fup [8]: 0.0560
- Fup.Med [8]: 0.0465
- Fup.point [8]: 0.0506
